Measurements published in publication PMC12069340 (Frontiers in Cellular and Infection Microbiology, 2025).
Where a name gives a salt, the structure may show the parent alone.

Each molecule was assayed on A/PuertoRico/8/1934 (H1N1 H274Y).
Format: cell-based, influenza A virus

| SMILES | IC50 [µM] |
| --- | --- |
| CC(COc1ccccc1)NC(C)C(O)c1ccc(O)cc1 (stereo not drawn) [Isoxsuprine, Isoxsuprine hydrochloride] | 9.3 |
| CCCN(CCc1cccs1)[C@H]1CCc2c(O)cccc2C1 [Rotigotine] | 8.6 |
| O=C(c1ccc(OCCCc2cnc[nH]2)cc1)C1CC1 [Ciproxifan] | 5.9 |
